Measurements as given in ChEMBL document CHEMBL4834473, “Novel hydroxybenzylamine-deoxyvasicinone hybrids as anticholinesterase therapeutics for Alzheimer's disease” (Bioorg Med Chem, 2021).
pIC50: −log10 of the molar value. Calls of active or inactive are those of the source. No cut-off for these calls is given here.

Molecular target: Cholinesterase (Equus caballus, UniProt P81908)
Test: Inhibition of equine serum BChE using butyrylthiocholine iodide as substrate preincubated for 10 mins followed by addition of substrate and measured after 15 mins by Ellman's method
Format: cell-free
Details: not given

Cholinesterase, sequence (P81908 whole entry): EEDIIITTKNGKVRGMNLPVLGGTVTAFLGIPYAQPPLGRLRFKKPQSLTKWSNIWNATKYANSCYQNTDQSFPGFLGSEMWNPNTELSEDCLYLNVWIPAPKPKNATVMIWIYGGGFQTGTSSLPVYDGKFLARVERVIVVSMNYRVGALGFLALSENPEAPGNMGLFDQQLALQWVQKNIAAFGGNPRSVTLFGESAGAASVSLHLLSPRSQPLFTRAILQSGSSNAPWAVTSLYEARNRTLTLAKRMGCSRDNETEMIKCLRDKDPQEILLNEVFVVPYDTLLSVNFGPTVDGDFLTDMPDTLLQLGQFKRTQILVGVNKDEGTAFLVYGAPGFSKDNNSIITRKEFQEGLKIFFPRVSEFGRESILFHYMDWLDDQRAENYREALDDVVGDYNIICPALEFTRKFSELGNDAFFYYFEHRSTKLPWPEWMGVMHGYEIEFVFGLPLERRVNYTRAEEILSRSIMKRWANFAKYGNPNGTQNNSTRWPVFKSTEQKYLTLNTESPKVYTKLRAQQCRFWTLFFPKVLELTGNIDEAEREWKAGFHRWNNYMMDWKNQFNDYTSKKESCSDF

Row | SMILES | pIC50
1 | O=c1c2cc(NCc3cc(Br)ccc3O)ccc2nc2n1CCC2 | 4.67
2 | COc1ccc(CNc2cc3c(=O)n4c(nc3cc2C)CCC4)c(O)c1 | 4.84
3 | O=c1c2cc(NCc3ccccc3O)ccc2nc2n1CCC2 | 4.74
4 | Cc1cc2nc3n(c(=O)c2cc1NCc1cc(F)ccc1O)CCC3 | 4.69
5 | O=c1c2cc(NCc3ccc(Cl)cc3O)ccc2nc2n1CCC2 | 4.66
6 | COc1ccc(CNc2ccc3nc4n(c(=O)c3c2)CCC4)c(O)c1 | 4.81
7 | COc1cccc(CNc2ccc3nc4n(c(=O)c3c2)CCC4)c1O | 4.79
8 | O=c1c2cc(NCc3cc(F)ccc3O)ccc2nc2n1CCC2 | 4.70
9 | Cc1cc2nc3n(c(=O)c2cc1NCc1ccccc1O)CCC3 | 4.73
10 | Cc1cc2nc3n(c(=O)c2cc1NCc1cccc(Br)c1O)CCC3 | 4.67
11 | COc1cccc(CNc2cc3c(=O)n4c(nc3cc2C)CCC4)c1O | 4.79
12 | Cc1cc2nc3n(c(=O)c2cc1NCc1cc(Br)ccc1O)CCC3 | 4.68
13 | Cc1cc2nc3n(c(=O)c2cc1NCc1ccc(Cl)cc1O)CCC3 | 4.69
14 | O=c1c2cc(NCc3cccc(Br)c3O)ccc2nc2n1CCC2 | 4.68
15 | O=c1c2ccccc2nc2n1CCC2 [DEOXYVASICINONE] | 4.60

Molecular target: Acetylcholinesterase (Homo sapiens) (UniProt P22303)
Sequence (P22303 whole entry): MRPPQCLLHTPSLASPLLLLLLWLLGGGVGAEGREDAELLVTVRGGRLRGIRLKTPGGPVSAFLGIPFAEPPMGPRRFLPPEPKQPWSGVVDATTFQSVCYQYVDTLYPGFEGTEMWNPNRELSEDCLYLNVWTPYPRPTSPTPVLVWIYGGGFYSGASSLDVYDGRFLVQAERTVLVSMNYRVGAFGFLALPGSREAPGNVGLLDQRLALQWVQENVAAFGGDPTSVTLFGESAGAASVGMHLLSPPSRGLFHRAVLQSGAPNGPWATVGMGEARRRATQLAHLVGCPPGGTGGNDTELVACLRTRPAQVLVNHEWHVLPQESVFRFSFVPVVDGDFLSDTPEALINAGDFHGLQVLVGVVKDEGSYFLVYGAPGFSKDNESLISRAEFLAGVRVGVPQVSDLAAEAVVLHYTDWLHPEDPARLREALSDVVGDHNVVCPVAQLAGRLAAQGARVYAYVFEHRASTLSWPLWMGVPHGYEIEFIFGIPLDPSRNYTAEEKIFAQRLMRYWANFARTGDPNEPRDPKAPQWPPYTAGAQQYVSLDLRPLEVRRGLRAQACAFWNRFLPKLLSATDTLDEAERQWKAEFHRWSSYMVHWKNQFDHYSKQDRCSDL
Test: Inhibition of AChE (unknown origin)-induced amyloid beta (1 to 42) aggregation at 1 to 5 uM measured after 24 hrs by ThT flourescence assay
Details: dose 1-5 µM

Row | SMILES | inhibition
16 | COc1ccc(CNc2cc3c(=O)n4c(nc3cc2C)CCC4)c(O)c1 | 72.6%
17 | O=c1c2cc(NCc3ccccc3O)ccc2nc2n1CCC2 | 49%
18 | COc1ccc(CNc2ccc3nc4n(c(=O)c3c2)CCC4)c(O)c1 | 68.7%
19 | COc1cccc(CNc2ccc3nc4n(c(=O)c3c2)CCC4)c1O | 55.1%
20 | Oc1c(I)cc(Cl)c2cccnc12 [CLIOQUINOL] | 11.5%
21 | Cc1cc2nc3n(c(=O)c2cc1NCc1ccccc1O)CCC3 | 40.2%
22 | COc1cccc(CNc2cc3c(=O)n4c(nc3cc2C)CCC4)c1O | 55%
23 | O=c1c2ccccc2nc2n1CCC2 [DEOXYVASICINONE] | 3.83%

Molecular target: Amyloid-beta precursor protein (Homo sapiens, UniProt P05067)
Sequence (P05067 whole entry): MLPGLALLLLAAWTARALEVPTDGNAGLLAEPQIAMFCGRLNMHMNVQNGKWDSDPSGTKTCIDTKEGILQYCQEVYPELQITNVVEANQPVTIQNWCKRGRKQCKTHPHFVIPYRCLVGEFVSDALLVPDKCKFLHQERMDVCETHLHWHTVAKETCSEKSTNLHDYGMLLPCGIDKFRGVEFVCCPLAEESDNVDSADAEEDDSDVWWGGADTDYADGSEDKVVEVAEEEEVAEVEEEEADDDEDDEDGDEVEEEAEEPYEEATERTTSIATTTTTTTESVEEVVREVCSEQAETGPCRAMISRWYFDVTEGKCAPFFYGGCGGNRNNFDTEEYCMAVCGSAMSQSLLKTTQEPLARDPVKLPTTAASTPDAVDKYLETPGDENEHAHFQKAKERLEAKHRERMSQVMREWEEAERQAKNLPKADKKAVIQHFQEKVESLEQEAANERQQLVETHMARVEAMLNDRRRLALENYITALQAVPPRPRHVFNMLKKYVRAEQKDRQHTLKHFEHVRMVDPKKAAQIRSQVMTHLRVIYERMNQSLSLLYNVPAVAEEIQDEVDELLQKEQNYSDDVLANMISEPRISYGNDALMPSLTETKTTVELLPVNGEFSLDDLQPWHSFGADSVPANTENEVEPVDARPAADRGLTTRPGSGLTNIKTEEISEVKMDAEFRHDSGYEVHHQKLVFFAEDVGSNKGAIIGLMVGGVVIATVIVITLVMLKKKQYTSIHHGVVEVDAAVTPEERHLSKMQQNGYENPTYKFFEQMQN
Test: Inhibition of human amyloid beta (1 to 42) self-induced aggregation measured after 48 hrs by ThT flourescence assay
Details: not given

Row | SMILES | pIC50
24 | O=c1c2cc(NCc3cc(Br)ccc3O)ccc2nc2n1CCC2 | 5.12
25 | COc1ccc(CNc2cc3c(=O)n4c(nc3cc2C)CCC4)c(O)c1 | 5.49
26 | O=c1c2cc(NCc3ccccc3O)ccc2nc2n1CCC2 | 5.33
27 | Cc1cc2nc3n(c(=O)c2cc1NCc1cc(F)ccc1O)CCC3 | 5.20
28 | O=c1c2cc(NCc3ccc(Cl)cc3O)ccc2nc2n1CCC2 | 5.15
29 | COc1ccc(CNc2ccc3nc4n(c(=O)c3c2)CCC4)c(O)c1 | 5.41
30 | COc1cccc(CNc2ccc3nc4n(c(=O)c3c2)CCC4)c1O | 5.38
31 | Oc1c(I)cc(Cl)c2cccnc12 [CLIOQUINOL] | 5.01
32 | O=c1c2cc(NCc3cc(F)ccc3O)ccc2nc2n1CCC2 | 5.20
33 | Cc1cc2nc3n(c(=O)c2cc1NCc1ccccc1O)CCC3 | 5.29
34 | Cc1cc2nc3n(c(=O)c2cc1NCc1cccc(Br)c1O)CCC3 | 5.03
35 | COc1cccc(CNc2cc3c(=O)n4c(nc3cc2C)CCC4)c1O | 5.37
36 | Cc1cc2nc3n(c(=O)c2cc1NCc1cc(Br)ccc1O)CCC3 | 5.13
37 | Cc1cc2nc3n(c(=O)c2cc1NCc1ccc(Cl)cc1O)CCC3 | 5.21
38 | O=c1c2cc(NCc3cccc(Br)c3O)ccc2nc2n1CCC2 | 5.08

Molecular target: Acetylcholinesterase (Electrophorus electricus, UniProt O42275)
Sequence (O42275 whole entry): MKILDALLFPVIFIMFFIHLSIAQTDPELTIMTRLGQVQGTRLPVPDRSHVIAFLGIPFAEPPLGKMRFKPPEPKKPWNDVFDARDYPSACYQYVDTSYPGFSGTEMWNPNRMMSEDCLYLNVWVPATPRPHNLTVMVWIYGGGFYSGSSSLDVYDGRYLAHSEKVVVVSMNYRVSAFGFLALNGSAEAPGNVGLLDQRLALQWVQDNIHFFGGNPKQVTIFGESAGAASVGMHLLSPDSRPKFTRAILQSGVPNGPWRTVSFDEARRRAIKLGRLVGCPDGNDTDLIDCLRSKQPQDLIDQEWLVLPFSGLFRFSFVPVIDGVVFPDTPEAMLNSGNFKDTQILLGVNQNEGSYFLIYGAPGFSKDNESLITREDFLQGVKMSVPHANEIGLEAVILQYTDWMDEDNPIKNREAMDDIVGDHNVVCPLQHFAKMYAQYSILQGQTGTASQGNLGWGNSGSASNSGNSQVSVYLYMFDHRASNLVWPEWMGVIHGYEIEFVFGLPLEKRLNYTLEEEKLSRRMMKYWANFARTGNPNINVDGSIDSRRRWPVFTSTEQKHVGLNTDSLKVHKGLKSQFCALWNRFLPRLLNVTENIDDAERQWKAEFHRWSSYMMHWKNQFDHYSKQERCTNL
Test: Inhibition of Electric eel AChE using acetylthiocholine iodide as substrate preincubated for 10 mins followed by addition of substrate and measured after 15 mins by Ellman's method
Details: not given

Row | SMILES | pIC50
39 | O=c1c2cc(NCc3cc(Br)ccc3O)ccc2nc2n1CCC2 | 5.26
40 | COc1ccc(CNc2cc3c(=O)n4c(nc3cc2C)CCC4)c(O)c1 | 6.47
41 | O=c1c2cc(NCc3ccccc3O)ccc2nc2n1CCC2 | 5.82
42 | Cc1cc2nc3n(c(=O)c2cc1NCc1cc(F)ccc1O)CCC3 | 5.57
43 | O=c1c2cc(NCc3ccc(Cl)cc3O)ccc2nc2n1CCC2 | 5.32
44 | COc1ccc(CNc2ccc3nc4n(c(=O)c3c2)CCC4)c(O)c1 | 6.42
45 | COc1cccc(CNc2ccc3nc4n(c(=O)c3c2)CCC4)c1O | 6.05
46 | O=c1c2cc(NCc3cc(F)ccc3O)ccc2nc2n1CCC2 | 5.60
47 | Cc1cc2nc3n(c(=O)c2cc1NCc1ccccc1O)CCC3 | 5.80
48 | Cc1cc2nc3n(c(=O)c2cc1NCc1cccc(Br)c1O)CCC3 | 5.20
49 | COc1cccc(CNc2cc3c(=O)n4c(nc3cc2C)CCC4)c1O | 6.08
50 | Cc1cc2nc3n(c(=O)c2cc1NCc1cc(Br)ccc1O)CCC3 | 5.28
51 | Cc1cc2nc3n(c(=O)c2cc1NCc1ccc(Cl)cc1O)CCC3 | 5.51
52 | O=c1c2cc(NCc3cccc(Br)c3O)ccc2nc2n1CCC2 | 5.24
53 | O=c1c2ccccc2nc2n1CCC2 [DEOXYVASICINONE] | 4.62

Molecular target: Acetylcholinesterase (Electrophorus electricus) (UniProt O42275)
Sequence (O42275 24-633 limits assumed): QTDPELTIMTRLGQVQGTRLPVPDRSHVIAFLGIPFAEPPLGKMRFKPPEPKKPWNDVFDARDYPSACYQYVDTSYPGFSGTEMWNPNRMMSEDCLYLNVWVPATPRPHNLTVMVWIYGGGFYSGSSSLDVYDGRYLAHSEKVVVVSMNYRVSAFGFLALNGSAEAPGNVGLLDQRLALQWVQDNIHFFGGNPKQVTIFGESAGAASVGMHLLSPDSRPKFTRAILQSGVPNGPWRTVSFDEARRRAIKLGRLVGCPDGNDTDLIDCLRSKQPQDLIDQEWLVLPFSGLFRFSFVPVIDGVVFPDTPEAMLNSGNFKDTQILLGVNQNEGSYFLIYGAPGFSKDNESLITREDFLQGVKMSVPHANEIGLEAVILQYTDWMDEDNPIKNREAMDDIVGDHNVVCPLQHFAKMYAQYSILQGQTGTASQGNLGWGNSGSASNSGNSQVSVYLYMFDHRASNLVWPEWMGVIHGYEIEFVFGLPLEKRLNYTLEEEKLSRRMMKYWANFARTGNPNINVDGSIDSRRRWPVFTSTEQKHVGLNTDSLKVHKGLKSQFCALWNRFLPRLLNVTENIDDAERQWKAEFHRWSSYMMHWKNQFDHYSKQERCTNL
Test: Non-competitive/mixed inhibition of electric eel AChE using varying concentrations of acetylthiocholine iodide as substrate at 0.16 to 0.64 uM measured every 2 mins for 10 mins by Lineweaver-Burk plot analysis
Details: dose 0.16-0.64 µM

Row | SMILES | inhibition
54 | COc1ccc(CNc2cc3c(=O)n4c(nc3cc2C)CCC4)c(O)c1 | Active

Test system: not listed separately
Test: Selectivity index, ratio of IC50 for equine serum BChE to IC50 for electric eel AChE
Details: not given

Row | SMILES | Ratio IC50
55 | O=c1c2cc(NCc3cc(Br)ccc3O)ccc2nc2n1CCC2 | 3.9
56 | COc1ccc(CNc2cc3c(=O)n4c(nc3cc2C)CCC4)c(O)c1 | 42.9
57 | O=c1c2cc(NCc3ccccc3O)ccc2nc2n1CCC2 | 11.9
58 | Cc1cc2nc3n(c(=O)c2cc1NCc1cc(F)ccc1O)CCC3 | 7.56
59 | O=c1c2cc(NCc3ccc(Cl)cc3O)ccc2nc2n1CCC2 | 4.52
60 | COc1ccc(CNc2ccc3nc4n(c(=O)c3c2)CCC4)c(O)c1 | 40.5
61 | COc1cccc(CNc2ccc3nc4n(c(=O)c3c2)CCC4)c1O | 17.8
62 | O=c1c2cc(NCc3cc(F)ccc3O)ccc2nc2n1CCC2 | 7.91
63 | Cc1cc2nc3n(c(=O)c2cc1NCc1ccccc1O)CCC3 | 11.7
64 | Cc1cc2nc3n(c(=O)c2cc1NCc1cccc(Br)c1O)CCC3 | 3.4
65 | COc1cccc(CNc2cc3c(=O)n4c(nc3cc2C)CCC4)c1O | 19.5
66 | Cc1cc2nc3n(c(=O)c2cc1NCc1cc(Br)ccc1O)CCC3 | 3.95
67 | Cc1cc2nc3n(c(=O)c2cc1NCc1ccc(Cl)cc1O)CCC3 | 6.68
68 | O=c1c2cc(NCc3cccc(Br)c3O)ccc2nc2n1CCC2 | 3.6
